{
  "source": "patent US20240391889A1",
  "about": "“ANTIMICROBIAL COMPOUNDS AND THE METHODS OF USE” (priority 2021, published 2024)",
  "key": {"C. auris": {"system": "C. auris", "assay": "MIC assay, C. auris", "format": "cell-based, Candida auris"}, "[1]": {"system": "Escherichia coli ATCC 25922", "format": "cell-based", "conditions": "24 h, CAMHB", "excerpt": "(§1) This screening led to the discovery of RMG9-11 (FIG. 2C). The minimum inhibitory concentration (MIC) of resynthesized RMG9-11 was initially determined against C. albicans, C. neoformans, and the ESKAPE bacteria via CSLI guidelines (CLSI. Methods for Dilution Antimicrobial Susceptibility Tests for Bacteria That Grow Aerobically, 11th Edition. Clinical and Laboratory Standards Institute (2018); CLSI. Reference method for broth dilution antifungal susceptibility testing of yeasts; approved standard-third edition; CLSI document M27-A3. Clinical and Laboratory Standards Institute (2008)). […] C. albicans clinical isolates include a reference strain (M1), fluconazole susceptible strains (M4 and M6), and fluconazole resistant strains (M2, M3, M5, and M7). ATCC 64124 is multidrug resistant C. albicans strain that is resistant to amphotericin B, fluconazole, caspofungin, and flucytosine. All MICs were performed under CSLI guidelines in triplicate on at least three different days.\n(§2) The minimum inhibitory concentration (MIC) of peptoids against the ESKAPE bacteria (Enterococcus faecium ATCC 6569; Staphylococcus aureus ATCC 29213; Klebsiella pneumoniae ATCC 13883; Acinetobacter baumanii ATCC 19606; Pseudomonas aeruginosa ATCC 25619; Enterococcus faecalis ATCC 29212; and Escherichia coli ATCC 25922) was determined following CLSI guidelines (CLSI. Methods for Dilution Antimicrobial Susceptibility Tests for Bacteria That Grow Aerobically, 11th Edition. Clinical and Laboratory Standards Institute, 2018). The MIC against Mycobacterium smegmatis was also determined following CLSI guidelines (Woods, G. L. et al. Susceptibility Testing of Mycobacteria, Nocardiae, and Other Aerobic Actinomycetes, 2nd edition. (2011)). Colonies picked from streaked tryptic soy agar plates were added to tryptic soy broth (TSB) to achieve a turbidity of OD600=0.08-0.15. Inoculant was diluted 1:200 into cation adjust Mueller Hinton Broth (CAMHB) and 90 μL was plated into each well of a 96 well black-wall plate. 2-fold serial dilutions of 10× peptoid (10 μL) were added to each well in triplicate and incubated at 37° C. for 24 hours for the ESKAPE bacteria and 72 hours for M. smegmatis. Tetracycline (20 μg/mL) was used as a positive control with DI water was used as a vehicle control. Following incubation for the ESKAPE bacteria, PRESTO BLUE (10 μL) was added to each well and incubated at 37° C. for one hour before measuring fluorescence on a SPECTRAMAX M5 plate reader (Ex. 555 nm; Em. 585 nm). Following incubation for M. smegmatis, wells were scored following CLSI guidelines to determine MIC. This assay was repeated three times on separate days."}, "[2]": {"system": "Enterococcus faecium ATCC 6569", "format": "cell-based", "conditions": "ATCC 6569, 24 h", "excerpt": "as §1, §2"}, "[3]": {"system": "Staphylococcus aureus ATCC 29213", "format": "cell-based", "conditions": "24 h, CAMHB", "excerpt": "as §1, §2"}, "[4]": {"system": "Enterococcus faecalis ATCC 29212", "format": "cell-based", "conditions": "24 h, CAMHB", "excerpt": "as §1, §2"}, "[5]": {"system": "Pseudomonas aeruginosa ATCC 25619", "format": "cell-based", "conditions": "ATCC 25619, 24 h", "excerpt": "as §1, §2"}, "C. albicans": {"system": "C. albicans", "format": "cell-based, Candida albicans", "excerpt": "One of the most serious crises facing both new and existing antimicrobial compounds is the rapid development of resistance by pathogens to that compound, rendering it useless. This has been an issue observed with all major commercially available antimicrobial drugs and is an increasingly prevalent issue with antifungal drugs (Clatworthy et al., Nat. Chem. Biol. 3, 541-548 (2007); Wiederhold et al., Infect. Drug Resist. 10, 249-259 (2017)). The ability of C. albicans to gain resistance against RMG9-11 was evaluated using two techniques; serial and single passage. Ching et al. described a method for single passage assessment of gain of resistance, which was used here with RMG9-11 (Ching et al., Sci. Rep. 10, 8754 (2020)). Briefly, a single colony of C. albicans was incubated overnight in RPMI-MOPS. Fungal cultures were then incubated for either 24 or 48 hours with concentrations of RMG9-11 ranging from 0 to 80% MIC. […] To further solidify this finding, C. albicans were introduced to increasing concentrations of RMG9-11 through a serial passage gain of resistance assay, as described by Samuelsen et al. (Samuelsen et al., FEBS Lett. 579, 3421-3426 (2005)). […] One main difference between serial and single passage assays is in the inoculation method from one passage to the next. The single passage relies on one individual colony while the serial passage focuses on a set concentration of fungi (cells/mL). At the end of serial passage, C. albicans that had been exposed to gradually increasing concentrations of RMG9-11 were used to prepare a traditional MIC assay. In theory, if fungi had evolved resistance during serial passage with sub-MIC antifungal agent, the MIC of RMG9-11 against these fungi should increase. […] To our knowledge, this is the first evaluation of the ability of a microbe to gain resistance to a peptoid, though it has long been hypothesized that gaining resistance to peptoids is unlikely.\nA second gain of resistance through single passage was done for RMG9-11 against C. albicans following previously published methods as a confirmation of serial passage results (Ching et al., Sci. Rep. 10, 8754 (2020)). A single C. albicans colony was inoculated into RPMI-MOPS (pH 7; 5 mL) and incubated overnight (200 RPM; 37° C.). […] The following day, an MIC was performed with these cell solutions to evaluate gain of resistance after 48 hours. This assay was performed with four separate streaked plates from frozen stocks for biological replicate."}, "C. krusie": {"system": "C. krusie", "format": "cell-based, Candida krusie"}, "[6]": {"system": "Acinetobacter baumanii ATCC 19606", "format": "cell-based, Acinetobacter baumannii", "conditions": "ATCC 19606, 24 h", "excerpt": "(§3) This screening led to the discovery of RMG9-11 (FIG. 2C). The minimum inhibitory concentration (MIC) of resynthesized RMG9-11 was initially determined against C. albicans, C. neoformans, and the ESKAPE bacteria via CSLI guidelines (CLSI. Methods for Dilution Antimicrobial Susceptibility Tests for Bacteria That Grow Aerobically, 11th Edition. Clinical and Laboratory Standards Institute (2018); CLSI. Reference method for broth dilution antifungal susceptibility testing of yeasts; approved standard-third edition; CLSI document M27-A3. Clinical and Laboratory Standards Institute (2008)). […]\n(§4) The minimum inhibitory concentration (MIC) of peptoids against the ESKAPE bacteria (Enterococcus faecium ATCC 6569; Staphylococcus aureus ATCC 29213; Klebsiella pneumoniae ATCC 13883; Acinetobacter baumanii ATCC 19606; Pseudomonas aeruginosa ATCC 25619; Enterococcus faecalis ATCC 29212; and Escherichia coli ATCC 25922) was determined following CLSI guidelines (CLSI. Methods for Dilution Antimicrobial Susceptibility Tests for Bacteria That Grow Aerobically, 11th Edition. Clinical and Laboratory Standards Institute, 2018). The MIC against Mycobacterium smegmatis was also determined following CLSI guidelines (Woods, G. L. et al. Susceptibility Testing of Mycobacteria, Nocardiae, and Other Aerobic Actinomycetes, 2nd edition. (2011)). […]"}, "[7]": {"system": "Klebsiella pneumoniae ATCC 13883", "assay": "Bacterial MIC assay, K. pneumoniae", "format": "cell-based", "conditions": "24 h, CAMHB", "excerpt": "as §3, §4"}},
  "note": "Where two headings read alike, the source gives them in different places. Numbered stars: 1 amine (or outer) side, 2 acyl side, 3 side chain; on linkers, the order of the positions; unused ones are H or OH. Square brackets hold non-standard residues; d marks the D form. Peptide text beside a SMILES is read from it. N(tridecyl)Gly = CCCCCCCCCCCCCNCC(=O)O; X1 = CC(c1ccccc1)N(CC(=O)[*:2])[*:1]; NFurfurylGly = O=C(O)CNCc1ccco1; Gly(N(CH2)3NH2) = NCCCNCC(=O)O; Nphe = O=C(O)CNCc1ccccc1; NPrGly = CCCNCC(=O)O; Nlys = NCCCCNCC(=O)O",
  "data": [
    {"compound": "CCCCCCCCCCCCCNCC(=O)N(CCC)CC(=O)N(CC(=O)N(CCCCN)CC(=O)N(CC(=O)N(CC(=O)N(CCCN)CC(N)=O)Cc1ccccc1)Cc1ccco1)C(C)c1ccccc1", "note": "(stereo not shown) [RMG9-11] (H-[N(tridecyl)Gly][NPrGly][X1][Nlys][NFurfurylGly][Nphe][Gly(N(CH2)3NH2)]-NH2)", "values": [
      {"measurement": "MIC C. auris", "setting": "C. auris", "result": 12.5, "unit": "µg/mL"},
      {"measurement": "MIC E. coli", "setting": "[1]", "result": 6.25, "unit": "µg/mL"},
      {"measurement": "MIC E. faecium", "setting": "[2]", "result": 3.13, "unit": "µg/mL"},
      {"measurement": "MIC S. aureus", "setting": "[3]", "result": 6.25, "unit": "µg/mL"},
      {"measurement": "MIC E. faecalis", "setting": "[4]", "result": 6.25, "unit": "µg/mL"},
      {"measurement": "MIC P. aeruginosa", "setting": "[5]", "result": 12.5, "unit": "µg/mL"},
      {"measurement": "Single Passage 24 h MIC", "setting": "C. albicans; C. albicans pre-exposed 24 h to 0% MIC RMG9-11", "result": 6.25, "unit": "µg/mL"},
      {"measurement": "Single Passage 24 h MIC", "setting": "C. albicans; pre-exposed 24 h to 10% MIC", "result": 6.25, "unit": "µg/mL"},
      {"measurement": "Single Passage 24 h MIC", "setting": "C. albicans; pre-exposed 24 h to 20% MIC", "result": 6.25, "unit": "µg/mL"},
      {"measurement": "Single Passage 24 h MIC", "setting": "C. albicans; pre-exposed 24 h to 40% MIC", "result": 6.25, "unit": "µg/mL"},
      {"measurement": "Single Passage 24 h MIC", "setting": "C. albicans; pre-exposed 24 h to 60% MIC", "result": 6.25, "unit": "µg/mL"},
      {"measurement": "Single Passage 24 h MIC", "setting": "C. albicans; pre-exposed 24 h to 80% MIC", "result": 6.25, "unit": "µg/mL"},
      {"measurement": "Single Passage 48 h MIC", "setting": "C. albicans; pre-exposed 48 h to 0% MIC", "result": 6.25, "unit": "µg/mL"},
      {"measurement": "Single Passage 48 h MIC", "setting": "C. albicans; pre-exposed 48 h to 10% MIC", "result": 6.25, "unit": "µg/mL"},
      {"measurement": "Single Passage 48 h MIC", "setting": "C. albicans; pre-exposed 48 h to 20% MIC", "result": 6.25, "unit": "µg/mL"},
      {"measurement": "Single Passage 48 h MIC", "setting": "C. albicans; pre-exposed 48 h to 40% MIC", "result": 6.25, "unit": "µg/mL"},
      {"measurement": "Single Passage 48 h MIC", "setting": "C. albicans; pre-exposed 48 h to 60% MIC", "result": 6.25, "unit": "µg/mL"},
      {"measurement": "Single Passage 48 h MIC", "setting": "C. albicans; pre-exposed 48 h to 80% MIC", "result": 6.25, "unit": "µg/mL"},
      {"measurement": "ability of C. albicans to develop resistance", "setting": "C. albicans; single passage, in words", "result": "unable to develop resistance"},
      {"measurement": "MIC C. krusie", "setting": "C. krusie", "result": 3.13, "unit": "µg/mL"},
      {"measurement": "MIC A. baumannii", "setting": "[6]", "result": 12.5, "unit": "µg/mL"},
      {"measurement": "MIC K. pneumonia", "setting": "[7]", "result": 50, "unit": "µg/mL"}
    ]}
  ]
}
